Experimental data as given in US20230321064A1, “Products for Treating the JNCL Disease” (Beyond Batten Disease Foundation, priority 2020, published 2023).
Where two headings read alike, the source gives them in different places.

Assays:
Cln3^Δex7-8 mice = experiment: Microglial activation, CD68 immunohistochemistry in brain sections; type: in vivo, mouse; details: analyzed regions VPM/VPL, DLG, S1BF, V1 (FIG. 2A-D)
Method: Cln3^Δex7-8 mice were obtained from the Jackson Laboratory. Control (C57BL/6J) and Cln3^Δex7-8 mice were housed 3-4 per cage in a room with a 12-h light/12-h dark cycle. Food and water were provided ad libitum. All mice used in this study were analyzed at 8 and 12 months of age and were littermates produced by crossing heterozygous Cln3^Δex7-8 mice. Only males were used for this analysis. Investigators were blinded when analyzing the data, and no randomization was necessary.
For oral administration, Trehalose was dissolved in drinking water to a final concentration of 2% and changed twice a week. Trehalose-containing water was given to Cln3^Δex7-8 mice and WT mice by spontaneous oral administration starting at 21 days of age and continuing until the day the mice were sacrificed for neuropathology studies.
Miglustat was administered in mixture with the food pellet starting at 21 days of age and continuing until the day the mice were sacrificed for neuropathology studies. Miglustat food was prepared by TestDiet using the 5V5R rodent diet (LabDiet). Two concentrations were used: 1.2 g/Kg chow (indicated as “low concentration”) and 7.2 g/Kg chow (indicated as “high concentration”) and two separate groups of Cln3^Δex7-8 mice were fed with either diet. One additional group of Cln3^Δex7-8 l mice was fed with a combination of the low-concentration Miglustat food and 2% Trehalose water.
Twelve-month-old homozygous Cln3^Δex7-8 mice and age-matched controls (WT mice) were anaesthetized with isoflurane and transcardially perfused with PBS followed by 4% buffered paraformaldehyde in 0.1 M sodium phosphate buffer, pH 7.4. Brains were subsequently removed and postfixed overnight. Before sectioning, the brains were cryoprotected in a solution containing 30% sucrose in Tris-buffered saline (TBS: 50 mM Tris, pH 7.6). Consecutive 40 μm floating coronal sections were collected in 96-well plates. Series of sections were then stained with primary antisera against CD68 (AbD
Serotec, Cat. No. MCA1957), GFAP (DAKO, Cat. No. Z0334), Subunit C of mitochondrial ATP synthase (SCMAS; Abcam, Cat. No. ab181243), or cleaved caspase 3 (Asp175) (Cell Signaling, Cat. No. 9661S) followed by either rabbit anti-rat (VectorLab) or swine anti-rabbit (DAKO) secondary antibodies, and immunoreactivity detected with Vectastain ABC (avidin-biotin) kit (Vector) and diaminobenzidine as a chromogen.
Non-overlapping images were captured, on three consecutive sections, through each region of interest. All RGB images were captured via a live video camera (JVC, 3CCD, KY-F55B), mounted onto a Zeiss Axioplan microscope using a x 40 objective and saved as JPEGs. All parameters including lamp intensity, video camera set-up and calibration were maintained constant throughout image capturing. For quantification of storage and inflammation, images were analyzed using ImageJ analysis software (NIH), using an appropriate threshold that selected the foreground immunoreactivity above background. This threshold was then applied as a constant to all subsequent images analyzed per batch of animals and reagent used to determine the specific area of immunoreactivity for each antigen in each region. […] For quantification of cell death, images were analyzed manually and scored for the presence of apoptotic nuclei. […]
(S1BF), the primary visual (V1) cortex, and the dorsolateral geniculate (DLG) (Pontikis et al., 2005). To quantify microglial activation, antibodies against the microglial marker CD68 were used. […]

[1] = Blood PK of Trehalose after IV and PO administration, with and without PO Miglustat (LC-MS/MS); type: in vivo, mouse; details: for Cmax / Tmax / AUC(0-inf): male, C57BL6/N, mouse, whole blood; for AUC(0-inf): read-out: AUC0-inf of Trehalose in blood (converted)
Method: LC-MS/MS bioanalytical methodologies were developed for the analysis of Trehalose, Miglustat and glucose in mouse whole blood and brain.
Blood samples were prepared as follows; 20 μL of whole blood was transferred to a 96 wellplate and diluted 1:1 with sterile distilled water. Samples were protein precipitated by addition of 160 μL of 2.5% of trichloroacetic acid (TCA). At the time of analysis, 1 volume of acetonitrile containing an internal standard was added in order to match the initial chromatography conditions, samples were centrifuged at 4350 rpm for 10 min at ambient temperature, and the resultant supernatant transferred for analysis on the LC-MS/MS.
The purpose of this example was to compare the blood PK of unlabelled high doses of Trehalose after IV and PO administration, with and without Miglustat PO dosing. For the IV comparison, Trehalose was dosed as an IV bolus dose 15 min after PO dosing of Miglustat. For the PO comparison Miglustat was dosed simultaneously with Trehalose. Fasted male C57BL6/N mice were dosed as detailed in Table III:
Blood samples were collected at pre-dose, 10, 20, 30, 60, 120 and 180 min post-dose for group 1 and 2 and at pre-dose, 15, 30, 45, 60, 120 and 180 min post-dose for group 3 and 4.

[2] = 1 g/kg trehalose IV + 150 mg/kg miglustat PO
[3] = 10 g/kg trehalose PO + 150 mg/kg miglustat PO

Structure (SMILES): OC[C@H]1O[C@H](O[C@H]2O[C@H](CO)[C@@H](O)[C@H](O)[C@H]2O)[C@H](O)[C@@H](O)[C@@H]1O [Trehalose, α-D-glucopyranosyl α-D-glucopyranoside dihydrate]
- microglial activation (CD68) (Cln3^Δex7-8 mice): partially mitigated
- Trehalose fold-change with miglustat dosing ([1]; 1 g/kg trehalose IV + 150 mg/kg miglustat PO vs 1 g/kg IV alone): 1.5
- increase of measured AUC of Trehalose by combined PO Miglustat ([1]; Trehalose via either IV or PO administration): > 1.5 fold
- detection of Trehalose after oral administration ([1]; low doses such as 1 g/kg, oral): cannot be detected
- Cmax ([1]; 1 g/kg trehalose IV): 3690 ± 153 µM
- Tmax ([1]; 1 g/kg trehalose IV): 20 min
- Cmax [1, 2]: 5490 ± 873 µM
- Tmax [1, 2]: 20 min
- AUC(0-inf) [1, 2]: 2990 µM·h
- AUC(0-inf) ([1]; 1 g/kg trehalose IV): 1960 µM·h
- Cmax [1, 3]: 189 ± 43.9 µM
- Tmax [1, 3]: 15 min
- AUC(0-inf) [1, 3]: 307 µM·h
